US20240366511A1, “ORAL SOLID DOSE FORMULATIONS” (GLAXOSMITHKLINE INTELLECTUAL PROPERTY DEVELOPMENT LIMITED, priority 2021, published 2024)
Where a name gives a salt, the structure may show the parent alone. Read-outs that look alike come from different tables or passages of the source.

Columns and labels:
[1] = Stability of crystal form under ambient conditions; assay type: physicochemical
Protocol: In another preparation, a spatula (<20 mg) of gepotidacin mesylate dihydrate (Form 1) was suspended in IPA (<1.5 ml). The suspension was heated with a heat gun to dissolve most of the solids, and then left to slowly cool to room temperature. The resultant crystals were filtered and analysed by DSC, TGA, and XRPD.

[2] = Solubility of gepotidacin mesylate dihydrate (Form 1) in water and simulated fluids; assay type: physicochemical; details: 20 °C, thermodynamic from solid, as free base, 20-25° C., read-out: Solubility (mg/mL of free base at 20-25° C.)
Protocol: The solubility of gepotidacin mesylate dihydrate (Form 1) was determined in simulated gastric fluid pH 1.6 (SGF), fasted state simulated intestinal fluid pH 6.5 (FaSSIF) and fed state simulated intestinal fluid pH 6.5 (FeSSIF) at ambient room temperature (20-25 C).

stability of the form [1] | solubility ([2]; Water) | solubility ([2]; fasted state simulated intestinal fluid (FaSSIF), FaSSIF (pH 6.5)) | solubility ([2]; fed state simulated intestinal fluid (FeSSIF), FeSSIF (pH 6.5)) | solubility ([2]; simulated gastric fluid (SGF), simulated gastric fluid, SGF (pH 1.6)) | SMILES
unstable under ambient conditions | – | – | – | – | CS(=O)(=O)O.O=c1cnc2ccc(=O)n3c2n1C[C@H]3CN1CCC(NCc2cc3c(cn2)OCCC3)CC1 [gepotidacin mesylate anhydrate]
– | > 180 mg/mL | 113 mg/mL | 99 mg/mL | 175 mg/mL | O=c1ccc2ncc(=O)n3c2n1C[C@H]3CN1CCC(NCc2cc3c(cn2)OCCC3)CC1 [gepotidacin mesylate dihydrate (Form 1)]
